# Assay results as given in ChEMBL document CHEMBL5727929, “CXCR4 inhibitors and uses thereof” (2020).
# Experiment: Binding Inhibition Assay: Jurkat cells expressing CXCR4 were washed once with assay buffer (Hanks' balanced salt solution with 20 mM HEPES buffer and 0.2% bovine serum albumin, pH 7.4) and then incubated for 15 min at room temperature with the test compounds diluted in assay buffer at dose-dependent concentrations. Subsequently, CXCL12-AF647 (25 ng/mL) was added to the compound-incubated cells. The cells were incubated for 30 min at room temperature. Thereafter, the cells were washed twice in assay buffer, fixed in 1% paraformaldehyde in PBS, and analyzed on the FL4 channel of a FACSCalibur flow cytometer equipped with a 635-nm red diode lase.
smiles,measurement,value
CC[C@H](O)c1c([C@H]2CCC[C@@H](c3ncccc3C)N2C)nc2cccc(N3CCN(C)CC3)n12,IC50,0.01 to 100 nM
